The source of these data is PubChem BioAssay (NCI).

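Following 48 hours of exposure in 96-well plates, responses at five concentrations were used to interpolate endpoints linearly. Here, GI50 denotes the concentration required for 50% inhibition of growth. TGI: total growth inhibition.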

Test systems include HT29 colon; M14 melanoma; RXF 393 renal; SK-MEL-28 melanoma; SNB-19 CNS; TK-10 renal; UACC-257 melanoma; UACC-62 melanoma; UO-31 renal.
What all share (assay): DTP human tumour cell line panel, 48 h

`CC(=O)OC1C2(CC3N4C(=O)C5(CO)SSC4(CC31O)C(=O)N5C)OC(C)C(C)(C)C2=O` (configuration not stated): the GI50 in the test with HT29 colon is below 0.01 µM; with M14 melanoma, 0.253 µM; in the test on RXF 393 renal, 0.0473 µM; with SK-MEL-28 melanoma, 0.0141 µM; in the test on SNB-19 CNS, 0.0184 µM; with TK-10 renal it was 1.73 µM. Besides, the figures for the GI50 in the test on UACC-257 melanoma, in the test with UACC-62 melanoma and in the test on UO-31 renal were 0.224 µM, 0.0103 µM and 0.0952 µM, respectively. The TGI with M14 melanoma is 0.722 µM; in the test on RXF 393 renal, 0.151 µM; with SK-MEL-28 melanoma, 0.0696 µM; in the test with SNB-19 CNS, 0.0666 µM; in the test on TK-10 renal, 3.27 µM; in the test on UACC-257 melanoma it was 0.651 µM. Further, the TGI was found to be 0.0322 µM in the test with UACC-62 melanoma and 1.05 µM in the test with UO-31 renal.

Consider `FC(F)(F)c1ccc2nc(Nc3ccc(Cl)c(Cl)c3)c(-c3ccccc3)nc2c1`, for which the TGI in the test with HT29 colon, with RXF 393 renal, with SK-MEL-28 melanoma, in the test on SNB-19 CNS, in the test on TK-10 renal and in the test on UACC-257 melanoma was above 100 µM each time. The TGI in the test on UO-31 renal was above 100 µM.

Regarding `COc1ccc2cc3n(c2c1)CCc1cc(OC)c(OC)cc1-3`, the TGI in the test with HT29 colon, in the test on RXF 393 renal, in the test on SK-MEL-28 melanoma, in the test with SNB-19 CNS, in the test with TK-10 renal and with UACC-257 melanoma was above 100 µM in each case. The TGI with UACC-62 melanoma and in the test on UO-31 renal was above 100 µM each time.

For `CC1CC2(CC[C@@H]1O)OCCO2` (some centres not stated), the TGI in the test with HT29 colon, in the test on M14 melanoma, in the test with RXF 393 renal, in the test with SNB-19 CNS, in the test with TK-10 renal and in the test on UACC-257 melanoma was above 100 µM each time. Moreover, the TGI in the test on UACC-62 melanoma and with UO-31 renal was above 100 µM each time.

Take `O=C(Nc1cc(Cl)c(Cl)cc1Cl)C(=O)C(C(=O)c1ccc(Cl)c(Cl)c1)C1OC(=O)c2ccccc21` (configuration not stated): the TGI in the test on HT29 colon amounted to 39.3 µM; in the test on M14 melanoma it was 27.7 µM; with RXF 393 renal, 21.9 µM; in the test on SNB-19 CNS, 49.8 µM; in the test on TK-10 renal, 52 µM; with UACC-257 melanoma it was 27.5 µM. The TGI with UACC-62 melanoma is 33.5 µM; with UO-31 renal it was 30.6 µM.

Turning to `CC(=O)C1=C([O-])C(C)OC1=O.CC(=O)C1=C([O-])C(C)OC1=O.[NH-]C1CCCC[C@H]1[NH-].[Pt+4]` (configuration not stated), the GI50 was 63.3 µM in the test on HT29 colon; 85.3 µM in the test on M14 melanoma; above 100 µM in the test with RXF 393 renal; 43.8 µM with SK-MEL-28 melanoma; above 100 µM in the test with SNB-19 CNS; above 100 µM in the test with TK-10 renal. Also, the GI50 was above 100 µM in the test on UACC-257 melanoma, 42.3 µM in the test on UACC-62 melanoma and above 100 µM in the test with UO-31 renal. Further, the total growth inhibition concentration (TGI) with HT29 colon, with M14 melanoma, in the test with RXF 393 renal, in the test on SK-MEL-28 melanoma, in the test with SNB-19 CNS and in the test on TK-10 renal was above 100 µM throughout. Further, the TGI in the test on UACC-257 melanoma, in the test on UACC-62 melanoma and in the test with UO-31 renal was above 100 µM in each case.

With `COC(=O)[C@]1(C)CCC[C@@]2(C)C1CCC1=C[C@@]3(C(C)C)CC[C@]12OO3` (some centres not stated), the TGI with HT29 colon is 29.5 µM; in the test with M14 melanoma it was 68.3 µM; with SNB-19 CNS it was above 100 µM; in the test on TK-10 renal, above 100 µM; in the test with UACC-257 melanoma, above 100 µM; in the test on UACC-62 melanoma, 72.3 µM. In the test on UO-31 renal, this compound displayed a TGI of 40.2 µM.

Turning to `Cc1cn2c(/C=N/N/C(N)=N\N)c(-c3ccc(Cl)c([N+](=O)[O-])c3)nc2s1`, the GI50 in the test on SNB-19 CNS is 2.05 µM; with TK-10 renal, 5.82 µM; with UACC-257 melanoma, 1.41 µM; with UACC-62 melanoma, 0.883 µM; with UO-31 renal, 9.45 µM. The TGI was determined as 18.6 µM in the test with SNB-19 CNS; 30.7 µM with TK-10 renal; 4.87 µM with UACC-257 melanoma; 1.67 µM in the test on UACC-62 melanoma; 22.5 µM in the test on UO-31 renal.

With `CCOC(=O)/C(C#N)=C1\N[C@H](C(=O)OCC)CO1`, the TGI in the test with HT29 colon, in the test on M14 melanoma, in the test on RXF 393 renal, in the test on SK-MEL-28 melanoma, with SNB-19 CNS and in the test with UACC-257 melanoma was above 100 µM in each case. Further, the TGI in the test on UACC-62 melanoma and in the test on UO-31 renal was above 100 µM each time.

For the compound `Nc1nc(OCc2ccccc2)nc2[nH]ncc12`, the GI50 in the test on HT29 colon is 28.6 µM; in the test on M14 melanoma, 36.6 µM; in the test on SK-MEL-28 melanoma it was 17 µM; in the test on SNB-19 CNS it was 26.3 µM; with TK-10 renal it was 1.39 µM; with UACC-257 melanoma, 19 µM. Besides, the GI50 in the test on UACC-62 melanoma was 14.4 µM; in the test with UO-31 renal, 20 µM. Also, the TGI with HT29 colon was 77.6 µM; in the test on M14 melanoma, above 100 µM; in the test on SK-MEL-28 melanoma, 35.2 µM; with SNB-19 CNS, 83.2 µM; in the test on TK-10 renal it was 14.2 µM; with UACC-257 melanoma it was 37.1 µM. Besides, the TGI is 32.1 µM with UACC-62 melanoma and above 100 µM with UO-31 renal.

A word on the GI50: it is the concentration that inhibits growth by half. In general, TGI refers to the concentration giving total growth inhibition.
